Assay results reported in patent US8222400B2, “Cyclodextrin compound modified with folic acid, process for production thereof, drug delivery agent for targeting drug delivery system, pharmaceutical composition, and imaging agent” (Nanodex Inc., priority 2007, dated 2012).
Blank lines part the entries; values can stand above or below the compound they belong to.

Key:
Caco-2 tumor cells = experiment: SPR measurement of interaction with immobilized Caco-2 tumor cells; type: binding, human; conditions: SPR linear plot, varied concentrations, Caco-2 cells-immobilized cuvette
Description: The SPR measurements of the exemplary compound 1 that bound to human colon cancer-derived Caco-2 cells and, as comparative target cells, normal rat liver cells were conducted by using the similar foregoing procedures. Each interaction was evaluated comparatively.
Experiment 6-1: The SPR measurements of the interaction with Caco-2 tumor cells The immobilization of Caco-2 cells was performed by the procedures similar to those of Example 5 <Immobilization of FBP>. Instead of using the solution that was used for the immobilization of FBP, the solution containing a suitable amount and concentration of the solution (phosphate buffer solution (pH 7.3)+0.85% NaCl) (manufactured by CORNING) containing Caco-2 cells was used as a fixative. In addition, to the Caco-2 cells-immobilized cuvette was added 200 μl of the exemplary compound 1 ([…]) that was dissolved in the phosphate buffer solution (pH 7.3)+0.85% NaCl. The SPR measurements were then carried out.
Experiment 7-1: The measurements of the interaction with Caco-2 tumor cells The immobilization of Caco-2 cells was performed by the procedures similar to those of Example 5 <Immobilization of FBP>. […]

[1] = SPR measurement of drug-inclusion association with immobilized DXR; type: binding; conditions: SPR linear plot, DXR-immobilized cuvette
Description: The capabilities of the CD compound of the invention were evaluated by the procedures similar to those of Experiment 7-1. An anticancer and antibiotic agent, doxorubicin (hereafter, referred to as “DXR”) was used as a drug.
Immobilization of DXR on the surface of an optical biosensor cuvette was performed by using the procedures similar to those of the above immobilization of FBP. A buffer with a different pH was used as a solvent for drugs.
An aminosilane group on the surface of the cuvette was reacted with a linker. 1 mM of the BS^3 solution/10 mM of phosphate buffer solution (pH 6.5) was used for the reaction. Then, an amino group of DXR was reacted with the other side of BS^3 linker. The steps were repeated one or more times until the response value became constant. An acetic anhydride-acetic acid solution (volume ratio 1:1) was injected into the cuvette to deactivate any remaining aminosilane groups and to block these. After the blocking, the solution was replaced by 10 mM acetic buffer (pH 5.3). The DXR solution (2 mg DXR/10 mM acetic buffer (pH5.3)) was added thereto. The reaction was carried out. […]
The kinetic behavior of the interaction of the exemplary compound 1 with DXR was measured by the procedures similar to those of Experiment 1. […]

[2] = molecular target: folate receptor protein (FBP) overexpressed on the surface of cancer cells (Homo sapiens, UniProt P15328); conditions: from reviews (Wang and Low 1998; Low et al. 2008); cited from earlier work
Chain of folate receptor protein (FBP) overexpressed on the surface of cancer cells (P15328 25-234): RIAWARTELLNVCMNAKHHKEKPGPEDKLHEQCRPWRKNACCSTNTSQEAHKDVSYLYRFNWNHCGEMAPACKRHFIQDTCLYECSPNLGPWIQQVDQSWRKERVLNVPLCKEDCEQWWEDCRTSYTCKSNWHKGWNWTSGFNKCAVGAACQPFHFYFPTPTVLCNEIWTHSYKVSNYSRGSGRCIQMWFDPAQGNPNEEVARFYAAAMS

[3] = molecular target: T1, folate binding proteins (FBP) (Bos taurus, UniProt P02702); experiment: SPR measurement of association with immobilized folate binding protein (FBP); conditions: each at 1.0×10^−6 M, 25.0° C.
T1 construct: purchased SIGMA
T1 sequence (P02702 20-234): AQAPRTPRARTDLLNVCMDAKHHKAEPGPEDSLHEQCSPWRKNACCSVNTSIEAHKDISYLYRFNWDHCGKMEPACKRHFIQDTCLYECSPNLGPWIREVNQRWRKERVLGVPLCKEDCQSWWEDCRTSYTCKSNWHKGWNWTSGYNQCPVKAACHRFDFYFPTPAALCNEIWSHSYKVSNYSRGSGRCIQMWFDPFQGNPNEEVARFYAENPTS
Description: Specifically, the ligand (e.g., folate-binding proteins) is immobilized on a cuvette, and the analyte (e.g., the cyclodextrin (CD) compound of the invention) that is dissolved in a buffer solution is injected into the above cuvette. Evanescent wave and surface plasmon wave excite the surface plasmon when the angle of incidence on a prism is […] the angle of total reflection. The angle of incidence is measured. The angle of incidence is changed depending on the mass within the evanescent field depth of 600 nm. The amount of the changes can be observed and refers to the response (R). This angle of incidence is proportional to the mass of the adsorbed molecule. In other words, these mass changes can indicate the interaction. The reagents used for immobilization were obtained as follows: • 1 mM BS^3 solution: 2.9 mg of Bis(sulfosuccinimidyl) suberate (BS^3) was dissolved into 5 ml of 10 mM phosphate buffer solution (pH 7.2); • a solution used for immobilization of FBP: 1 mg of FBP (manufactured by SIGMA) was dissolved into 1 ml of 10 mM phosphate buffer solution (pH 7.2). […] A saturation curve shown in FIG. 1 was obtained (measured at a temperature of 25.0° C.). […] The association characteristics of each compound that bound to FBP were evaluated.

Association constant Ka (receptor Caco-2) (Caco-2 tumor cells): 18000 M⁻¹
SMILES: CNC(=O)CCC(NC(=O)c1ccc(NCc2cnc3nc(N)[nH]c(=O)c3n2)cc1)C(=O)O (stereo not shown) [Comparative Compound 3]
Association constant Ka (drug DXR) [1]: 2500 M⁻¹

SMILES: Nc1nc2ncc(CNc3ccc(C(=O)N[C@@H](CCC(=O)O)C(=O)O)cc3)nc2c(=O)[nH]1 [folic acid]
Association constant for folate receptor protein (FBP) [2]: 10^10 M^−1

SMILES: OC[C@H]1O[C@@H]2O[C@H]3[C@H](O)[C@@H](O)[C@@H](O[C@H]4[C@H](O)[C@@H](O)[C@@H](O[C@H]5[C@H](O)[C@@H](O)[C@@H](O[C@H]6[C@H](O)[C@@H](O)[C@@H](O[C@H]7[C@H](O)[C@@H](O)[C@@H](O[C@H]8[C@H](O)[C@@H](O)[C@@H](O[C@H]1[C@H](O)[C@H]2O)O[C@@H]8CO)O[C@@H]7CO)O[C@@H]6CO)O[C@@H]5CO)O[C@@H]4CO)O[C@@H]3CO [unmodified β-CD, β-cyclodextrin]
Interaction with FBP (SPR response, FIG. 1) [3]: did not exhibit any interaction properties
